{"source": "patent US20190038756A1", "about": "“COMPOSITIONS INCLUDING BENZENESULFONAMIDE-CONTAINING NON-STEROIDAL ANTI-INFLAMMATORY DRUGS, SILK FIBROIN, AND A GELLING AGENT AND USES THEREOF” (Cocoon Biotech Inc., priority 2016, published 2019)", "key": {"[1]": {"test": "Gelation of silk fibroin hydrogels with varying gelling agents (25° C., 37° C., autoclave)", "type": "physicochemical"}, "[2]": {"tested_on": "TNF-α in human whole blood", "test": "Human whole blood activation: TNF-α by ELISA after 24 hours at 37° C., with or without LPS", "type": "cell-based", "text": "Acute inflammatory responses are initiated via activation of a mammal's innate immune system. Human whole blood contains the principle repertoire of immune cells responsible for initiating an innate driven inflammatory response. Activation of inflammation in human whole blood is a useful in vitro assay for assessing the inflammatory potential of silk-fibroin hydrogel constituents. For this reason, whole human blood was exposed to silk fibroin solutions, three dimensional silk fibroin hydrogels, and a variety of different gelling agents for 24 hours at 37° C. and assessed for activation of inflammation.\nLipopolysaccharide (LPS) was used as a positive stimulator of the inflammatory marker TNF-α, in whole blood. Experiments to assess the inflammatory potential of formulation constituents were conducted both in the absence and the presence of lipopolysaccharide (LPS). The later condition to assess whether any formulation constituent had the activity of potentiating a known inflammatory signal. In each experiment, plasma was collected at the end of the incubation period and analyzed for TNF-α via enzyme-linked immunosorbent assay (ELISA)."}, "[3]": {"test": "In vitro release study of NSAIDs from silk-PEG hydrogels (UV detection)", "type": "physicochemical", "settings": "for release of free drug without encapsulation in silk-fibroin hydrogels: no hydrogel; for sustained release (e.g., greater than one week) using a silk-fibroin hydrogel delivery platform / time within which celecoxib was released: silk-fibroin hydrogel; for time within which celecoxib was released: 6.5% (w/v) fibroin (FIG. 5)", "protocol": "Lyophilized silk was dissolved with ultrapure water to obtain concentrations of 1.3, 3.6, 7.0, 13.0, and 23.0% (w/v). Polyethylene glycol (PEG) with molecular weights of 300 and 400 Da (PEG300 and PEG400) was diluted with ultrapure water when necessary. Celecoxib (a benzenesulfonamide-containing NSAID) and other NSAIDs which are not benzenesulfonamide-containing NSAIDs (tenoxicam, meloxicam, and lomoxicam) were dissolved with 80% (v/v) PEG400 solution to obtain low concentration solutions (<40 mg/mL) or with 100% (v/v) PEG300 to obtain high concentration solutions (>100 mg/mL). Diclofenac sodium salt (another NSAID that is not a benzenesulfonamide-containing NSAID) was dissolved in the aqueous silk solution.\nThe PEG or PEG/drug solution was mixed with silk solution by pipetting up and down gently and aliquoted into a 2-mL Eppendorf tube. Each tube was left at 37° C. to gel overnight (Wang et al., Acta Biomater. 12:51-61, 2015).\nTo the 2-mL Eppendorf tube containing fibroin-drug hydrogel, 1.95 mL of release medium was added. The release medium contained 1× phosphate buffer, pH 7.4, 0.1% (v/v) Tween-80, and 0.02% (w/v) sodium azide. The samples were incubated at 37° C. with gentle shaking. The release medium was changed after 24 hours and then approximately once every 3 days. The release medium was subjected to UV detection using a UV transparent bottom plate (Corning) at the respective wavelengths listed in Table 8. Control release medium was measured under the same condition for background subtraction. A calibration curve was generated for each drug by dissolving a known amount of each drug in the release medium, and making dilutions with the release medium."}, "[4]": {"settings": "oral NOAEL dose 20 mg/kg, cited from earlier work"}, "[5]": {"test": "AUC at NOAEL oral dose from oral Celecoxib NDA package", "settings": "in vivo, oral NOAEL dose 20 mg/kg, read-out: Extrapolated AUC for 25 days"}, "[6]": {"test": "Solubility of celecoxib in release media", "type": "physicochemical", "settings": "release medium (phosphate buffered saline with Tween-80), aqueous with cosolvent or surfactant or cyclodextrin; 1× phosphate buffered saline, 2% (v/v) Tween-80, 0.05% sodium azide"}, "[7]": {"settings": "absence of celecoxib, RT curing"}, "[8]": {"settings": "absence of celecoxib, autoclaving"}}, "note": "Where a name gives a salt, the structure may show the parent alone. Read-outs that look alike come from different tables or passages of the source.", "data": [{"molecule": "OC[C@@H](O)[C@@H](O)[C@H](O)[C@@H](O)CO", "note": "[sorbitol]", "values": [{"measurement": "Gelling agent concentration at which a hydrogel formed", "setting": "[1]; absence of celecoxib, 37° C.", "result": "30 % (w/v)"}, {"measurement": "Gelling agent concentration at which a hydrogel formed", "setting": "[1]; absence of celecoxib, RT", "result": "30 % (w/v)"}, {"measurement": "Inflammatory potential (TNF-α) in human whole blood", "setting": "[2]; +/−LPS, relevant concentrations", "result": "non-inflammatory"}]}, {"molecule": "O=C(O)Cc1ccccc1Nc1c(Cl)cccc1Cl", "note": "[Diclofenac sodium salt]", "values": [{"measurement": "time within which drug was completely released", "setting": "[3]; from all the tested silk-fibroin hydrogels (FIGS. 2-4), 37° C., phosphate buffer pH 7.4, 0.1% Tween-80", "result": "≤ 4", "unit": "days"}, {"measurement": "release of free drug without encapsulation in silk-fibroin hydrogels", "setting": "[3]", "result": "released within one day"}, {"measurement": "sustained release (e.g., greater than one week) using a silk-fibroin hydrogel delivery platform", "setting": "[3]", "result": "could not be achieved"}]}, {"molecule": "silk fibroin: soluble silk fibroin samples isolated using several different degumming techniques", "values": [{"measurement": "Inflammatory signal (TNF-α) in human whole blood", "setting": "[2]; absence of co-added LPS, 24 hours at 37° C.", "result": "did not exhibit inflammatory signals beyond low baseline responses"}, {"measurement": "TNF-α response in human whole blood", "setting": "[2]; presence of LPS, 24 hours at 37° C.", "result": "generally reduced compared to the response to LPS alone"}]}, {"molecule": "CN1C(C(=O)Nc2ccccn2)=C(O)c2sc(Cl)cc2S1(=O)=O", "note": "[Lomoxicam, lomoxicam]", "values": [{"measurement": "day at which cumulative release plateaued", "setting": "[3]; drug with no fibroin (FIG. 1)", "result": 2, "unit": "days"}, {"measurement": "day at which cumulative release plateaued", "setting": "[3]; from silk-fibroin hydrogels, all tested formulations (FIG. 1), 37° C., phosphate buffer pH 7.4, 0.1% Tween-80", "result": 6, "unit": "days"}, {"measurement": "release of free drug without encapsulation in silk-fibroin hydrogels", "setting": "[3]", "result": "released within one day"}, {"measurement": "sustained release (e.g., greater than one week) using a silk-fibroin hydrogel delivery platform", "setting": "[3]", "result": "could not be achieved"}]}, {"molecule": "OCC(O)CO", "note": "[glycerol]", "values": [{"measurement": "Minimum gelling agent concentration eliciting gelation", "setting": "[1]; 87 mg/mL celecoxib, curing temperature 37° C.", "result": "40 % (v/v)"}, {"measurement": "Minimum gelling agent concentration eliciting gelation", "setting": "[1]; absence of celecoxib, 37° C.", "result": "40 % (v/v)"}, {"measurement": "Minimum gelling agent concentration eliciting gelation", "setting": "[1]; [7]", "result": "50 % (v/v)"}, {"measurement": "Minimum gelling agent concentration eliciting gelation", "setting": "[1]; [8]", "result": "30 % (v/v)"}]}, {"molecule": "CC(O)CO", "note": "(stereo not drawn) [Propylene glycol]", "values": [{"measurement": "Minimum gelling agent concentration eliciting gelation", "setting": "[1]; 87 mg/mL celecoxib, RT", "result": "30 % (v/v)"}, {"measurement": "Minimum gelling agent concentration eliciting gelation", "setting": "[1]; 87 mg/mL celecoxib, autoclave", "result": "10 % (v/v)"}, {"measurement": "Minimum gelling agent concentration eliciting gelation", "setting": "[1]; [7]", "result": "40 % (v/v)"}, {"measurement": "Minimum gelling agent concentration eliciting gelation", "setting": "[1]; [8]", "result": "20 % (v/v)"}]}, {"molecule": "Cc1ccc(-c2cc(C(F)(F)F)nn2-c2ccc(S(N)(=O)=O)cc2)cc1", "note": "[Celecoxib, 4-[5-(4-methylphenyl)-3-(trifluoromethyl)pyrazol-1-yl]benzenesulfonamide]", "values": [{"measurement": "extended time period of celecoxib release", "setting": "[3]; all hydrogels of FIG. 7", "result": "≤ 56", "unit": "days"}, {"measurement": "duration of sustained celecoxib release", "setting": "[3]; fibroin concentrations in the hydrogel […] (w/v) to 6.5% (w/v)", "result": "sustained over two months"}, {"measurement": "period over which celecoxib release occurs", "setting": "[3]; hydrogel fibroin concentration 0.65% (w/v) (FIG. 6)", "result": 15, "unit": "days"}, {"measurement": "period over which celecoxib release occurs", "setting": "[3]; hydrogel fibroin concentration 1.3% (w/v) (FIG. 6)", "result": 30, "unit": "days"}, {"measurement": "period over which celecoxib release occurs", "setting": "[3]; hydrogel fibroin concentration 12.5% (w/v) (FIG. 6)", "result": 41, "unit": "days"}, {"measurement": "period over which celecoxib release occurs", "setting": "[3]; hydrogel fibroin concentration […] (w/v) (FIG. 6)", "result": 41, "unit": "days"}, {"measurement": "period over which celecoxib release occurs", "setting": "[3]; no fibroin/“free” celecoxib sample (0% silk-fibroin) (FIG. 6)", "result": 6, "unit": "days"}, {"measurement": "time within which celecoxib was released", "setting": "[3]; celecoxib 0.09375% (w/v)", "result": "≤ 30", "unit": "days"}, {"measurement": "time within which celecoxib was released", "setting": "[3]; celecoxib 0.1875% (w/v)", "result": "≤ 30", "unit": "days"}, {"measurement": "time within which celecoxib was released", "setting": "[3]; celecoxib 0.375% (w/v)", "result": "≤ 75", "unit": "days"}, {"measurement": "duration of slow release of celecoxib at ˜40 μg a day", "setting": "[3]; silk-fibroin hydrogels", "result": "more than 75 days"}, {"measurement": "slow release rate of celecoxib from silk-fibroin hydrogels", "setting": "[3]; silk-fibroin hydrogels", "result": "~40", "unit": "μg a day"}, {"measurement": "AUC at Day 1", "setting": "[4]; Female (F)", "result": 39.1, "unit": "µg·h/mL"}, {"measurement": "AUC at Day 1", "setting": "[4]; Male (M)", "result": 18.7, "unit": "µg·h/mL"}, {"measurement": "AUC", "setting": "[5]; Female (F)", "result": 978, "unit": "µg·h/mL"}, {"measurement": "AUC", "setting": "[5]; Male (M)", "result": 468, "unit": "µg·h/mL"}, {"measurement": "solubility", "setting": "[6]", "result": 850, "unit": "µg/mL"}]}, {"molecule": "Glycerol formal", "values": [{"measurement": "Minimum gelling agent concentration eliciting gelation", "setting": "[1]; [7]", "result": "40 % (v/v)"}, {"measurement": "Minimum gelling agent concentration eliciting gelation", "setting": "[1]; [8]", "result": "20 % (v/v)"}]}]}
